Laboratory results from patent US8759073B2, “Method for effectively controlling harmful organisms in large-scale culture of microalgae” (ENN Science & Technology Development Co., Ltd., priority 2009, dated 2014).
“Also recorded” adds a separate entry of the source.

Tests used:
Oxyrrhis = assay: Control of Oxyrrhis contamination in microalgae culture, microscope examination; format: cell-based, Oxyrrhis sp
Text: If the contaminated alga liquid is identified as acid tolerant contamination, pH value is raised up with alkalis in the culture system of the microalgae and maintained for a period of time. The pH value cannot be higher than the maximal tolerable pH of the microalgae. […] In an embodiment, said alkali can be ammonia. In an embodiment, said alkali can be NaOH. In an embodiment, said alkali can be 1M NaOH. Depending on different pH requirements and different culture systems, alkalis with different concentrations can be used according to the agitation condition, as long as the transient pH is not too high to be harmful to microalgae, and dilution of the cell concentration in the culture system (caused by adding too much alkali solution) should also be avoided. […] In an embodiment, the pH of the culture system is adjusted to 11.5-12.0 with 1M NaOH or 1M ammonia. In an embodiment, the pH of the culture system is adjusted to 11.0-11.8 or 8.0-11.0 with 1M NaOH or 1M ammonia. In an embodiment, the pH of the culture system is adjusted to 8.0-11.0, 11.5-12.0 or 11.0-11.8 and maintained for 3 hours.
Microscope examination is always used as one of the bases for determining the growth status in the process of microalgae culture.
(§1) Chlorella sp. (purchased from FACHB collection, Wuhan Aquatic Research Institure, Chinses Academy of Sciences) was cultured in a 320 L bubbling reactor (manufactured by Longfang Jiangchuan plexiglass Co. Ltd., φ300 mm×2 m) out-of-doors under a sunlight film. The culture condition included: a temperature of about 25 °C, a humidity of 60%-80%, and an illumination of 8000-20000 lux. Modified SM (see Table 2) (pH 7.0-9.0 for the normal culture) was used. […] Then, CO2 was aerated to adjust pH to be 7.0-8.0.
(§2) Chlorella sp. (obtained from Jinan University) was cultured in a 320 L bubbling reactor (manufactured by Longfang Jiangchuan plexiglass Co. Ltd., φ300 mm×2 m) out-of-doors under a sunlight film (with a temperature of about 25 °C, a humidity of 60%-80%, and an illumination of 8000-20000 lux). Modified SM medium (see Table 2) was used. When Amoeba, Oxyrrhis and ciliate contaminations were observed is with an oil immersion lens (Nikon fluorescent invert microscope Ti series), pH was adjusted to 11.0-11.8 with 1M NaOH. […] Then, CO2 was aerated continuously to saturation (pH 5.6). […] Then air was sufficiently aerated.
Chlorococcum sp. (obtained from Qingdao Marine Institute) was cultured in a 60 L glass plate reactor (manufactured by Longfang Jiangchuan plexiglass Co. Ltd., OP=10 cm) under a sunlight film (with a temperature of about 25 °C, a humidity of 60%-80%, and an illumination of 8000-20000 lux) (pH 8.0-9.0 for the normal culture). Modified BG11 medium (see Table 3) was used. […] Then CO2 was aerated and pH was adjusted to 7.0-8.0.
Chlorococcum sp. (obtained from Qingdao Marine Institute) was cultured in a 60 L glass plate reactor (manufactured by Longfang Jiangchuan plexiglass Co. Ltd., OP=10 cm) under a sunlight film (with a temperature of about 25 °C, a humidity of 60%-80%, and an illumination of 8000-20000 lux) (pH 8.0-9.0 for the normal culture). Modified BG11 medium (see Table 3) was used. […] One hour later, CO2 was aerated to saturation (about pH 5.6) for 24 hour continuously. […] Then air was sufficiently aerated.

Chlorella sp. = assay: Growth of cultured algae after treatment, 320 L bubbling reactor
Description: pH of the normally cultured microalgae is adjusted into various ranges. The growth rate of the microalgae is measured and their appearance is observed under a microscope.
as §1
Chlorella sp. (purchased from FACHB collection, Wuhan Aquatic Research Institure, Chinses Academy of Sciences) was cultured in a 320 L bubbling reactor (manufactured by Longfang Jiangchuan plexiglass Co. Ltd., φ300 mm×2 m) out-of-doors under a sunlight film. Modified SM medium (see Table 2) (pH 7.0-9.0 for the normal culture) was used. The culture condition included: a temperature of about 25 °C, a humidity of 60%-80%, and an illumination of 8000-20000 lux. […] Then air was sufficiently aerated, and pH was raised to 7.0-7.5 after 4 hours.
as §2
as §1, with “film. Modified SM medium (see Table 2) (pH 7.0-9.0 for the normal culture) was used.” for “film.”, “lux.” for “lux. Modified SM (see Table 2) (pH 7.0-9.0 for the normal culture) was used.”, “Then” for “Then,”, “aerated and pH was adjusted” for “aerated”, “to” for “to adjust pH to be”
Chlorella sp. (obtained from Jinan University) was cultured in a 320 L bubbling reactor (manufactured by Longfang Jiangchuan plexiglass Co. Ltd., φ300 mm×2 m) out-of-doors under a sunlight film (with a temperature of about 25 °C, a humidity of 60%-80%, and an illumination of 8000-20000 lux). Modified SM medium (see Table 2) was used. […] Then CO2 was aerated to saturation (pH 5.6) for 24 hours continuously. […] Then air was sufficiently aerated.

Dunaliella tertiolecta = assay: Growth of cultured algae after treatment, 120 L bubbling reactor; format: cell-based; details: Example 1; CO2 intermittently pH 6.0-6.5 for 2 days, salinity decreased by 1%
Text: Salinity was reduced by 1% (e.g. from 9% to 8%) by way of dilution with water. Then air was sufficiently aerated.

Spirulina maxima = assay: Growth of cultured algae after treatment, 500 L raceway pond; format: cell-based; details: Example 15; 1M ammonia pH 10.0 1 h, saturated CO2 23 h, then air
Description: Modified SM (see Table 2) was used. […] Then air was sufficiently aerated. Twenty-four hours later, the algae could resume to grow.
Modified SM (see Table 2) was used. […] One hour later, CO2 was aerated to saturation for 23 hour continuously (about pH 5.8). […] Then air was sufficiently aerated. Twenty-four hours later, the algae could resume to grow.

diatom = assay: Control of diatom contamination in culture of Chlorococcum sp., microscope examination; format: cell-based; details: Example 8
Text: Chlorococcum sp. […] Modified BG11 medium (see Table 3) was used. […] Then air was sufficiently aerated.

SMILES: O=C=O [CO2, carbon dioxide]
- Oxyrrhis, result of microscope examination (Oxyrrhis; Example 4, after 1M NaOH pH 11.0-11.8 1 h, CO2 to saturation (pH 5.6) 24 hours): no Amoeba or Oxyrrhis
- Oxyrrhis, result of microscope examination (Oxyrrhis; Example 7, after 1M NaOH pH 11.5-12.0 1 h, CO2 to saturation (about pH 5.6) 24 hour): no Amoeba or Oxyrrhis
- Oxyrrhis, result of microscope examination (Oxyrrhis; Example 10, after 1M NaOH pH 11.5-12.0 1 h, CO2 to saturation (about pH 5.8) 23 hour): no Amoeba or Oxyrrhis
- Oxyrrhis, result of microscope examination (Oxyrrhis; Example 12, after 1M ammonia pH 9.0 1 h, CO2 to saturation (pH 5.6) 24 hours): no Amoeba or Oxyrrhis
- Oxyrrhis, result of microscope examination (Oxyrrhis; Example 14, after 1M ammonia pH 9.0 1 h, CO2 to saturation (about pH 5.6) 24 hour): no Amoeba or Oxyrrhis
- Oxyrrhis, result of microscope examination (Oxyrrhis; Example 15, after 1M ammonia pH 10.0 1 h, CO2 to saturation (about pH 5.8) 23 hour): no Amoeba or Oxyrrhis
- growth of the algae (Chlorella sp.): almost not affected
- time until algae started to grow (FIG. 4) (Chlorella sp.): About 28 hours
- time until algae started to grow after recovery of pH7.0 or above (Chlorella sp.; pH 7): 24 hours
- time until algae resumed to grow after air aeration (Chlorella sp.; pH 9): Twenty-four
- impact on the growth of algae (Dunaliella tertiolecta): not affected essentially; also recorded: little impact on the growth of algae
- time until algae resumed to grow after air aeration (Spirulina maxima): Twenty-four
- diatom, result of microscope examination (diatom; CO2 aerated continuously to saturation (about pH 5.6), thirty-six hours): some diatom lost intracellular pigment and only empty shells were left
- residual contaminating diatom after air aeration (diatom; saturated CO2 36 hours, then air sufficiently aerated): reduced activity, grew slowly, and would not become dominant algae; also recorded: grew slowly
